The values that follow come from PMC12655426 (Pharmaceutics, 2025).

In general, Km refers to the substrate concentration at which the rate is half of its maximum. What is called Vmax is the rate approached at saturating substrate. What is called IC50 is the concentration at which inhibition is half-maximal.

The subject of one data set is SLC17A3 (NPT4). The settings on record: OTA extracellular efflux; cited from earlier work.
For another data set, the target named is T1, OATP1A2 (Homo sapiens, UniProt P46721).
T1 sequence (P46721 1-670): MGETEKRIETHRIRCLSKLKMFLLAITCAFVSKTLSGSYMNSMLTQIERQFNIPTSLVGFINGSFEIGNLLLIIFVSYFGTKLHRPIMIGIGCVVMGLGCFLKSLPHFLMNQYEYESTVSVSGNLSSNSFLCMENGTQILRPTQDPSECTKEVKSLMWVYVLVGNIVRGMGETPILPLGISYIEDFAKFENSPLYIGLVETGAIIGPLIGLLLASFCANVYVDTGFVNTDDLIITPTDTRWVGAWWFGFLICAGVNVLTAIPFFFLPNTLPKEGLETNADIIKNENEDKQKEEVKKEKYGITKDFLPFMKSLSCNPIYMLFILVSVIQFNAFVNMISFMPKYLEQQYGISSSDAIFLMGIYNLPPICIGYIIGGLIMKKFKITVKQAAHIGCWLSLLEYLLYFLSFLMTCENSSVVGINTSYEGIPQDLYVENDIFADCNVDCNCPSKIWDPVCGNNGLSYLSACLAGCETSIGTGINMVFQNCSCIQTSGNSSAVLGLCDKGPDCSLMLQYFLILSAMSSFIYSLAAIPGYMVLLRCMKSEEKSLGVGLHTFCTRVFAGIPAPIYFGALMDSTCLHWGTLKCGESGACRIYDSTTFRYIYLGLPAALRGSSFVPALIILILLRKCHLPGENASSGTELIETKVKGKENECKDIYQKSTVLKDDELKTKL
The data set is described as follows: OTA uptake in OATP1A2-overexpressing HEK293 cells (screen and kinetics). The method, then: (§1) The following experiments were conducted at the University of Washington. Mock HEK293 cells and transporter-overexpressing HEK293 cells (i.e., OAT1–4, OCT2, MATE1/2K, OCTN1, OATP1A2), mock CHO cells, and OCTN2-overexpressing CHO cells were plated in 96 well plates coated with 0.05 mg/mL of poly-D-lysine in 50 μL DPBS at a density of 800,000 cells/mL and grown until reaching over 90% of confluence. […] For uptake experiments in MATE1- and MATE2-K-expressing HEK293 cells, the pH of the incubation buffer was adjusted to 8.0 to facilitate substrate uptake. For uptake experiments in OATP1A2-expressing and OAT4-expressing HEK293 cells, the pH of the incubation buffer was adjusted to 6.5 to mimic pH of the urinary filtrate, as these are apical transporters. The incubation buffer was kept at pH 7.4 for all other transporters. […] Uptake was quenched by removing the substrates/inhibitors and washing the cells 3 times with 200 μL of ice-cold HBSS++. […] The precipitated protein was allowed to dry and subsequently solubilized overnight in 1M NaOH, neutralized with 1 M HCl the next day, and measured by BCA assay.
(§2) All cellular-based assays were conducted in technical triplicate across three independent experiments. […] This cutoff was defined a priori. […] Jnet was then treated as the initial uptake rate, and Km and Vmax values were obtained by fitting the Michaelis–Menten equation to the substrate-concentration data as described above. Intrinsic clearance (CLint) was then calculated by the formula, CLint=Vmax/Km using Vmax and Km values as calculated above. […] At steady-state, the mass balance for intracellular concentrations assuming symmetric passive permeabilities (Papical = Pbasal, taken as Papp from mock assays) and apical efflux gives: Ccell= Cbasal/1+ ke/Pa where Cbasal is the concentration in the basal chamber and ke is the first-order elimination with respect to BCRP. Because the asymmetric efflux ratio ERa is defined as: ERa=1+ ke/Pa

A further data set relates to MRP2. The settings on record: read-out: IC50, inhibition of MRP2-mediated p-aminohippurate efflux; cited from earlier work.
For data set [1] the following is noted: single fasted volunteer, microdose of radioactive OTA in ethanol, within 8 h, not absolute bioavailability; cited from earlier work.
The target of the next data set is T2, OAT4 (Homo sapiens, UniProt Q9NSA0).
T2 sequence (Q9NSA0 1-550): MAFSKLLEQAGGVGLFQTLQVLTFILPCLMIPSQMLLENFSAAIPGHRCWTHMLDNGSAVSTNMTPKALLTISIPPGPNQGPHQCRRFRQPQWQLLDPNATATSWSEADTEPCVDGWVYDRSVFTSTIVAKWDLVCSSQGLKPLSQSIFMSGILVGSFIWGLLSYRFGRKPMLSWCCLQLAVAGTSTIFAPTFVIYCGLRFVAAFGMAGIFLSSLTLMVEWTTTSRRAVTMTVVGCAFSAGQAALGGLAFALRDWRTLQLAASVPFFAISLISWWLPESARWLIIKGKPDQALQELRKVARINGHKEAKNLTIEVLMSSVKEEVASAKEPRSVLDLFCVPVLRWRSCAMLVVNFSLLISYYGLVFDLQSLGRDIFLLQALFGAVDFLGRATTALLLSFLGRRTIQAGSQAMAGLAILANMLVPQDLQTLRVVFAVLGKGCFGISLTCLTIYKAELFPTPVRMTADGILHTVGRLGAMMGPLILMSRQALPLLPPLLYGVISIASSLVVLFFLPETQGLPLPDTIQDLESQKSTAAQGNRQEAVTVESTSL
The data set is described as follows: OTA uptake in OAT4-overexpressing HEK293 cells (screen and kinetics). The method, then: as §1, §2

In a further data set the target is T3, OAT3 (Homo sapiens, UniProt Q8TCC7).
T3 sequence (Q8TCC7 1-542): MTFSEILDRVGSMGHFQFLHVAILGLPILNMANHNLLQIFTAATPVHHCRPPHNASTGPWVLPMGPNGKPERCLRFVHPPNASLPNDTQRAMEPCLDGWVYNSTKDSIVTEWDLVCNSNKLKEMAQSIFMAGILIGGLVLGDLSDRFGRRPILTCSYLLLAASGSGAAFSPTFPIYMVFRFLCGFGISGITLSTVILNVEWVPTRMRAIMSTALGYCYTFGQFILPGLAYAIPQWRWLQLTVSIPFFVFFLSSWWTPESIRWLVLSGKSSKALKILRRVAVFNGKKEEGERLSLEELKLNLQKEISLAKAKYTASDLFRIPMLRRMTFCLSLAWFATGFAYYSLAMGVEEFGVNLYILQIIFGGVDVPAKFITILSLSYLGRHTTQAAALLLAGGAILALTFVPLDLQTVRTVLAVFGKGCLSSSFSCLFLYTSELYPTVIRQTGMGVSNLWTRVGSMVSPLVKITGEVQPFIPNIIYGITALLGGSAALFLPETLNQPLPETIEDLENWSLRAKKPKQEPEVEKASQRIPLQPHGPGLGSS
The data set is described as follows: OTA uptake in OAT3-overexpressing HEK293 cells (screen and kinetics). The method, then: as §1, §2

Where [2] appears, read: HEK293, 5 min, 37 °C, pH 6.5, mock-corrected.

In the case of `C[C@@H]1Cc2c(Cl)cc(C(=O)N[C@@H](Cc3ccccc3)C(=O)O)c(O)c2C(=O)O1` [OTA, Ochratoxin A], the figures for the Michaelis constant (Km) in the data set on SLC17A3 (NPT4) and at OAT4 (setting [2]) were 803 µM and 6.38 ± 1.45 µM, respectively. Also, the Vmax on OATP1A2 (setting [2]) was determined as 801.0 ± 133.9 pmol/mg/min; at OAT4 (setting [2]) it was 96.9 ± 18.8 pmol/mg/min; on OAT3 (HEK293, 5 min, 37 °C, pH 7.4, mock-corrected), 141.4 ± 30.3 pmol/mg/min. Besides, the microsomal CLint at OATP1A2 (human, other cell line, pH 6.5) turned out to be 21.6 ± 2.3 µL/min/mg; on OAT4 (human, other cell line, pH 6.5), 15.3 ± 0.8 µL/min/mg; on OAT3 (human, other cell line, pH 7.4) it was 56.1 ± 6.3 µL/min/mg. For the same compound, the Km at 5 min is 37.3 ± 6.2 µM at OATP1A2 (human, pH 6.5) and 2580 ± 830 nM on OAT3 (human, pH 7.4). Moreover, the IC50 in the data set on MRP2 was 58 µM. Also, the “percentage of administered radioactivity detected in plasma” value in data set [1] is given as ~ 93%.
